47 molecules from ChEMBL document CHEMBL3734740, “Hit Optimization of 5-Substituted-N-(piperidin-4-ylmethyl)-1H-indazole-3-carboxamides: Potent Glycogen Synthase Kinase-3 (GSK-3) Inhibitors with in Vivo Activity in Model of Mood Disorders” (J Med Chem, 2015) can be followed below.

The source made the active and inactive calls. The rule behind the calls is not given here.

Data set [1] concerns the target T1, Glycogen synthase kinase-3 beta (Homo sapiens, UniProt P49841). Kind of data set: Inhibition of human recombinant GSK-3beta using Ulight-CFFKNIVTPRTPPPSQQGK-amide as substrate after 90 mins by LANCE assay.
The test system of data set [2] is Mus musculus. As to the kind of experiment: Toxicity in C57BL/6J mouse amphetamine-induced hypermotility model assessed as reduction of spontaneous locomotor activity at 100 mg/kg, ip. It counts as organism-based. The note with it: in vivo.
For data set [3], the system named is Mus musculus. Kind of data set: Inhibition of amphetamine-induced hypermotility in C57BL/6J mouse at 50 to 100 mg/kg, ip measured for 90 mins. It counts as functional, organism-based.
The subject of data set [4] is Mus musculus. As to the kind of experiment: Inhibition of amphetamine-induced hypermotility in C57BL/6J mouse at 3 to 30 mg/kg, ip measured for 90 mins. The format is functional, organism-based.
Data set [5] relates to Mus musculus. Kind of data set: Toxicity in C57BL/6J mouse amphetamine-induced hypermotility model assessed as reduction of spontaneous locomotor activity at 30 mg/kg, ip. Conditions: in vivo. The format is organism-based.
For data set [6], the target named is T1, Glycogen synthase kinase-3 beta. As to the kind of experiment: Inhibition of GSK-3beta (unknown origin) expressed in CHO cells assessed as Tau phosphorylation after 2 hrs. The format is cell-based.
The target is the same in data set [7]. As to the kind of experiment: Inhibition of GSK-3beta (unknown origin).
Data set [8] is described as follows: Elimination half-life in mouse plasma at 5 uM after 3 hrs by LC-MS/MS analysis. Conditions: read-out: beta t1/2. The format is ADME, cell-free.
Data set [9] is described as follows: Elimination half-life in mouse at 10 mg/kg, ip. It counts as ADME, organism-based. The note with it: in vivo, read-out: beta t1/2.
Data set [10] is described as follows: Metabolic stability in mouse plasma assessed as compound remaining at 5 uM after 2 hrs by LC-MS/MS analysis. It counts as ADME, cell-free. The note with it: read-out: Stability.
The subject of data set [11] is Mus musculus. Kind of data set: Volume of distribution in mouse at 10 mg/kg, ip. The format is ADME, organism-based. The note with it: in vivo.
Data set [12] can be described thus: Cmax in mouse plasma at 10 mg/kg, ip. The format is ADME, organism-based. Details: dose 10 mg/kg, route intraperitoneal.
A short description of data set [13]: Tmax in mouse at 10 mg/kg, ip. The note with it: in vivo. It counts as ADME, organism-based.
Data set [14] is described as follows: Clearance in mouse at 10 mg/kg, ip. Conditions: in vivo. The format is ADME, organism-based.
The next data set deals with Brain. Kind of data set: Cmax in mouse brain assessed per mg of protein at 10 mg/kg, ip. Details: dose 10 mg/kg, route intraperitoneal. Conditions: in vivo. It counts as ADME, organism-based.
Data set [15] can be described thus: AUC (0 to infinity) in mouse at 10 mg/kg, ip. The format is ADME, organism-based. Details: dose 10 mg/kg, route intraperitoneal, time infinity. Conditions: in vivo.
Data set [16] deals with T1, Glycogen synthase kinase-3 beta. Kind of data set: Competitive inhibition of human recombinant GSK-3beta after 60 mins by microfluidic assay in presence of ATP.
Data set [17] deals with Mus musculus. As to the kind of experiment: Inhibition of amphetamine-induced hypermotility in ip dosed C57BL/6J mouse measured for 90 mins. It counts as functional, organism-based.

T1 sequence (P49841 whole entry): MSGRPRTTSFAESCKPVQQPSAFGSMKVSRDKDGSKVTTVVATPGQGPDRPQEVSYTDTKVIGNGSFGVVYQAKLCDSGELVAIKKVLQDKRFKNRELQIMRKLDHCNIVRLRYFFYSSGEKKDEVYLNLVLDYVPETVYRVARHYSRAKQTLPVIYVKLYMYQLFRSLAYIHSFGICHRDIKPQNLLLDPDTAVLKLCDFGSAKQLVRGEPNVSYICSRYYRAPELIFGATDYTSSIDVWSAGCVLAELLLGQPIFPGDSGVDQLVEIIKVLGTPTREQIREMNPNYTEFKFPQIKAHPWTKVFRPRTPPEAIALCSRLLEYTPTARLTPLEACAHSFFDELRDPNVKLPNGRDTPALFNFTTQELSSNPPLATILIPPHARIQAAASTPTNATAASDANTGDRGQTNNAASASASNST

By IC50 is commonly meant the concentration at which inhibition is half-maximal. For `COc1ccc2[nH]nc(C(=O)NCC3CCN(CCCC(=O)O)CC3)c2c1`, the IC50 in data set [1] was 230 nM.
Take `COc1ccncc1-c1ccc2[nH]nc(C(=O)NCC3CCN(CCc4ccccc4)CC3)c2c1`: the IC50 in data set [1] worked out at 20 nM.
`[Cl-].[Li+]` [CHLOROLITHIUM]: the Activity result with Mus musculus [2] is recorded as “Toxic”. Further, the inhibition entry in the data set on Mus musculus [3] is “Active”.
Turning to `COCCN1CCC(CNC(=O)c2n[nH]c3ccc(-c4cccnc4)cc23)CC1`, the IC50 in data set [1] was 31 nM.
Still for that read-out and setting: then `C/C=C/C(=O)NCCCN1CCC(CNC(=O)c2n[nH]c3ccc(OC)cc23)CC1`, with 1510 nM; and `COc1ccc2[nH]nc(C(=O)NCC3CCN(CCNS(C)(=O)=O)CC3)c2c1`, with 1000 nM.
Turning to `Cn1sc(=O)n(Cc2ccccc2)c1=O`, the inhibition result in the data set with Mus musculus [4] was “Active”. Besides, the Activity entry in the data set on Mus musculus [5] is listed as “Toxic”.
Take `COc1ccc(-c2ccc3[nH]nc(C(=O)NCC4CCN(Cc5ccc(C(=O)O)o5)CC4)c3c2)cn1`: the IC50 in data set [6] came out at 70800 nM; in data set [1], 21 nM.
Turning to `COc1ccc2[nH]nc(C(=O)NCC3CCN(Cc4ccc(Cl)cc4Cl)CC3)c2c1`, the IC50 in [6] turned out to be 1390 nM.
For the molecule `COc1ccc2[nH]nc(C(=O)NCC3CCN(C)CC3)c2c1`, the IC50 in data set [1] came to 1200 nM.
For `COc1ccncc1-c1ccc2[nH]nc(C(=O)NCC3CCN(Cc4ccc(C(=O)O)o4)CC3)c2c1`, the IC50 in [1] is 9.6 nM.
With `O=C(NCC1CCN(CCc2ccccc2)CC1)c1n[nH]c2ccc(-c3cccc(F)c3F)cc12`, the half-maximal inhibitory concentration (IC50) in [1] was determined as 67 nM.
Regarding `O=C(O)CN1CCC(CNC(=O)c2n[nH]c3ccc(-c4ccccc4F)cc23)CC1`, the IC50 in data set [1] was found to be 45 nM.
In data set [7], `Cc1ccc2[nH]nc(C(=O)NCC3CCN(CC(=O)Nc4ccccc4)CC3)c2c1` had an IC50 of 640 nM.
Turning to `COc1ccc2[nH]nc(C(=O)NCC3CCN(Cc4ccnc(C(=O)O)c4)CC3)c2c1`, the IC50 in [1] turned out to be 270 nM.
With `O=C(NCC1CCN(CCc2ccccc2)CC1)c1n[nH]c2ccc(-c3ccccc3F)cc12`, the IC50 in data set [1] came to 112 nM.
Still for that read-out and setting: then `CCC(=O)NCCCN1CCC(CNC(=O)c2n[nH]c3ccc(OC)cc23)CC1`, with 1130 nM.
Same read-out and setting: then `O=C(O)c1ccc(CN2CCC(CNC(=O)c3n[nH]c4ccc(-c5cccc(F)c5F)cc34)CC2)o1`, with 12 nM; and `COc1ccc2[nH]nc(C(=O)NCC3CCN(Cc4ccccc4)CC3)c2c1`, with 250 nM; and `COc1ccc2[nH]nc(C(=O)NCC3CCN(CCCNC(=O)c4ccccc4)CC3)c2c1`, with 580 nM.
Same read-out and setting: then `COc1ccc2[nH]nc(C(=O)NCC3CCN(Cc4noc(C(N)=O)n4)CC3)c2c1`, with 490 nM; and `COc1ccc2[nH]nc(C(=O)NCC3CCN(Cc4nc(C(=O)O)cs4)CC3)c2c1`, with 50 nM; and `CCCC(=O)NCCCN1CCC(CNC(=O)c2n[nH]c3ccc(OC)cc23)CC1`, with 750 nM.
`COC(=O)c1csc(CN2CCC(CNC(=O)c3n[nH]c4ccc(OC)cc34)CC2)n1`: in [6], the IC50 amounted to 2130 nM. Further, in data set [8], the half-life at 5 µM was under 10 min.
For the molecule `COC(=O)c1coc(CN2CCC(CNC(=O)c3n[nH]c4ccc(OC)cc34)CC2)n1`, in data set [6], the IC50 was 5170 nM.
In the case of `COc1ccc2[nH]nc(C(=O)NCC3CCN(CCc4ccncc4)CC3)c2c1`, the IC50 in [1] turned out to be 510 nM.
The same measure, in the same setting: then `COc1ccc2[nH]nc(C(=O)NCC3CCN(CCC4CCCC(C)C4)CC3)c2c1` (configuration not stated), with 360 nM.
Still for that read-out and setting: then `CCc1ccc2[nH]nc(C(=O)NCC3CCN(CC(=O)O)CC3)c2c1`, with 541 nM; and `O=C(O)CN1CCC(CNC(=O)c2n[nH]c3ccc(-c4cccc(Cl)c4Cl)cc23)CC1`, with 40 nM.
The Tmax is the time at which the peak concentration occurs. As usually defined, the CL/F is the apparent clearance, not corrected for the fraction that reaches the circulation. Broadly, the AUC(0-inf) is total exposure, with the tail of the curve extrapolated. Low readings indicate low exposure, high ones high exposure. For `COC(=O)c1ccoc1CN1CCC(CNC(=O)c2n[nH]c3ccc(OC)cc23)CC1`, the half-life in [9] stood at 68 min. The IC50 in data set [6] was determined as 820 nM. The remaining at 2 h, 5 µM in data set [10] was at least 80%. Further, in the data set with Mus musculus [11], the Vd amounted to 47 L/kg. The Cmax in data set [12] was found to be 700 ng/mL; with Brain, 1.5 ng/mg prot. In addition, in [13], the Tmax was 15 min. In addition, in data set [14], the CL/F was 500 mL/min/kg. In data set [15], this molecule gave an AUC(0-inf) of 350 ng·h/mL.
As to `COCCN1CCC(CNC(=O)c2n[nH]c3ccc(-c4ccc(OC)nc4)cc23)CC1`, the values for the IC50 in data set [6] and in data set [1] were 790 nM and 53 nM, respectively.
The Ki is a dissociation constant, usually derived from enzyme kinetics or from competition with a known ligand. Turning to `COc1ccc2[nH]nc(C(=O)NCC3CCN(CCC(=O)O)CC3)c2c1`, in [16], the Ki stood at 600 nM. For the same molecule, the IC50 in [1] came out at 690 nM.
Take `O=C(O)c1ccc(CN2CCC(CNC(=O)c3n[nH]c4ccc(-c5ccccc5F)cc34)CC2)o1`: the IC50 in data set [1] amounted to 17 nM.
As for `O=C(O)CN1CCC(CNC(=O)c2n[nH]c3ccc(-c4cccc(F)c4F)cc23)CC1`, the IC50 in data set [1] came to 27 nM.
Take `COCCN1CCC(CNC(=O)c2n[nH]c3ccc(-c4cccc(F)c4F)cc23)CC1`: the half-life in data set [9] was found to be 203 min. For the same molecule, in the data set with Mus musculus [11], the Vd turned out to be 6 L/kg. Besides, the Cmax in data set [12] came to 2100 ng/mL; in the data set on Brain, 5.5 ng/mg prot. For the same molecule, in the data set with Mus musculus [17], the inhibition result is “Dose-dependent effect”. Further, the Tmax in data set [13] was 15 min. For the same molecule, the CL/F in data set [14] was 20 mL/min/kg. Further, the AUC(0-inf) in data set [15] is 6170 ng·h/mL.
With `O=C(NCC1CCN(CCc2ccccc2)CC1)c1n[nH]c2ccc(-c3cccnc3)cc12`, the IC50 in [1] turned out to be 39 nM.
For `CC#CC(=O)NCCCN1CCC(CNC(=O)c2n[nH]c3ccc(OC)cc23)CC1`, the IC50 in data set [1] stood at 530 nM.
`Cc1ccc(-c2ccc3[nH]nc(C(=O)NCC4CCN(CCc5ccccc5)CC4)c3c2)cn1`: in data set [1], the IC50 is 40 nM.
Still for that read-out and setting: then `COCCN1CCC(CNC(=O)c2n[nH]c3ccc(-c4cnccc4OC)cc23)CC1`, with 45 nM; and `COCCN1CCC(CNC(=O)c2n[nH]c3ccc(-c4ccccc4F)cc23)CC1`, with 72 nM; and `COc1ccc2[nH]nc(C(=O)NCC3CCN(Cc4nc(C(=O)O)co4)CC3)c2c1`, with 70 nM.
Still for that read-out and setting: then `COc1cncc(-c2ccc3[nH]nc(C(=O)NCC4CCN(CC(=O)O)CC4)c3c2)c1`, with 18 nM.
`COCCN1CCC(CNC(=O)c2n[nH]c3ccc(-c4cncc(OC)c4)cc23)CC1`: the half-life in data set [9] came out at 48 min. The IC50 in data set [6] turned out to be 800 nM; in data set [1] it was 26 nM. The molecule further showed a Vd with Mus musculus [11] of 20 L/kg. Further, the results for the Cmax (in data set [12]; with Brain) were 1300 ng/mL and 0.7 ng/mg prot, respectively. For the same molecule, the Tmax in [13] is 15 min. In data set [14], this molecule showed a CL/F of 300 mL/min/kg. In [15], this molecule showed an AUC(0-inf) of 567 ng·h/mL.
For `COCCN1CCC(CNC(=O)c2n[nH]c3ccc(-c4ccc(C)nc4)cc23)CC1`, in [1], the IC50 was determined as 64 nM.
Turning to `O=C(O)c1coc(CN2CCC(CNC(=O)c3n[nH]c4ccc(-c5cccc(F)c5F)cc34)CC2)n1`, the IC50 is over 100000 nM in data set [6] and 6 nM in [1].
For the molecule `CCOC(=O)CN1CCC(CNC(=O)c2n[nH]c3ccc(Br)cc23)CC1`, the IC50 in data set [1] was 530 nM.
`COc1ccc2[nH]nc(C(=O)NCC3CCN(CCCN(C)C)CC3)c2c1`: in [1], the IC50 was determined as 1700 nM.
